Data set [1] relates to multi-strain LAB culture. The data set can be described thus: SSF of control mash with 1% w/w infected mash, AA13 candidates, HPLC of organic acids and ethanol (Example 3). Format: cell-based. The conditions noted are these: SSF 32° C. up to 24 hours, 20% DS; for % delta Ethanol / % delta Lactic Acid: vs No Treatment. The method, then: A control mash was prepared in-house with an industry relevant blend of AA369 and Protease Pfu using a Lab-O-Mat incubator for 2 hours at 85° C. and 36% DS to simulate typical industry conditions. The mash was then frozen prior to use in SSF. An infected mash was prepared by infecting the control mash with a multi-strain LAB culture grown in MRS. The bacteria in control mash was incubated overnight, and then frozen with 20% glycerol. For this experiment, 1% weight/weight of the infected mash was mixed into the control mash. This mimics an infection event at a large-scale ethanol facility. For SSF, all mash was prepared with 1000 ppm of urea to aid with yeast fermentation. All treatments were dosed with a baseline commercial glucoamylase GSA, while AA13 candidates were dosed at either 10 ug/g-DS or 50 ug/g-DS. SSF was performed at 5 g scale with 10 uL/g rehydrated Ethanol Red yeast at 32° C. for up to 24 hours at 20% DS. At the end of fermentation, samples were deactivated with 50 uL of 40% sulfuric acid and then centrifuged. The supernatant was filtered through a 0.2 μm filter and then measured for soluble carbohydrates and organic acids using an ion-exchange H-column on HPLC.

For data set [2] the following is noted: pH 4.5; cited from earlier work.

Take “Penicillium vulpinum: Penicillium vulpinum AA13 polypeptide of SEQ ID NO: 147”: in data set [1] (AA13 dose 10 ug/g-DS), the “average Ethanol” value came to 79.0 g/L, the “average Lactic Acid” value is recorded as 3.2 g/L, the “% delta Ethanol” value came to 1.7% and the “% delta Lactic Acid” value is on record as −2.9%. Moreover, in data set [1] (AA13 dose 50 ug/g-DS), the “average Ethanol” value is on record as 78.3 g/L, the “average Lactic Acid” value was determined as 3.5 g/L, the “% delta Ethanol” value is 0.9% and the “% delta Lactic Acid” value came to 4.6%.

Turning to “Penicillium hoeksii: Penicillium hoeksii AA13 polypeptide of SEQ ID NO: 137”, in data set [1] (AA13 dose 10 ug/g-DS), the “average Ethanol” value worked out at 78.1 g/L, the “average Lactic Acid” value is reported as 3.2 g/L, the “% delta Ethanol” value is 0.6% and the “% delta Lactic Acid” value was −2.8%. In data set [1] (AA13 dose 50 ug/g-DS), the “average Ethanol” value was 79.1 g/L, the “average Lactic Acid” value stood at 3.2 g/L, the “% delta Ethanol” value turned out to be 1.9% and the “% delta Lactic Acid” value is −4.8%.

As to Penicillin [reference compound], in data set [1] (Penicillin dose 25 ppm), the “average Ethanol” value was determined as 80.1 g/L, the “average Lactic Acid” value was 1.2 g/L, the “% delta Ethanol” value is 3.1% and the “% delta Lactic Acid” value is reported as −62.4%.

Turning to “Penicillium sclerotiorum: Penicillium sclerotiorum AA13 polypeptide of SEQ ID NO: 141”, in data set [1] (AA13 dose 10 ug/g-DS), the “average Ethanol” value was found to be 76.4 g/L, the “average Lactic Acid” value was 3.5 g/L, the “% delta Ethanol” value is −1.6% and the “% delta Lactic Acid” value amounted to 6.9%. Further, in data set [1] (AA13 dose 50 ug/g-DS), the “average Ethanol” value worked out at 78.1 g/L, the “average Lactic Acid” value worked out at 3.3 g/L, the “% delta Ethanol” value was 0.6% and the “% delta Lactic Acid” value is reported as −0.9%.

In the case of “Acrostalagmus luteoalbus: Acrostalagmus luteoalbus AA13 polypeptide of SEQ ID NO: 129”, in data set [1] (AA13 dose 10 ug/g-DS), the “average Ethanol” value is listed as 78.9 g/L, the “average Lactic Acid” value is listed as 3.0 g/L, the “% delta Ethanol” value was determined as 1.7% and the “% delta Lactic Acid” value is given as −10.9%. Also, in data set [1] (AA13 dose 50 ug/g-DS), the “average Ethanol” value was 80.0 g/L, the “average Lactic Acid” value stood at 2.9 g/L, the “% delta Ethanol” value is 3.0% and the “% delta Lactic Acid” value is recorded as −13.2%.

Regarding “Penicillium viticola: Penicillium viticola AA13 polypeptide of SEQ ID NO: 146”, in data set [1] (AA13 dose 10 ug/g-DS), the “average Ethanol” value came out at 76.6 g/L, the “average Lactic Acid” value came out at 3.4 g/L, the “% delta Ethanol” value was −1.3% and the “% delta Lactic Acid” value was 2.2%. In data set [1] (AA13 dose 50 ug/g-DS), the “average Ethanol” value turned out to be 77.8 g/L, the “average Lactic Acid” value is 3.4 g/L, the “% delta Ethanol” value is given as 0.2% and the “% delta Lactic Acid” value came to 2.8%.

Take “Penicillium roseopurpureum: Penicillium roseopurpureum AA13 polypeptide of SEQ ID NO: 139”: in data set [1] (AA13 dose 10 ug/g-DS), the “average Ethanol” value is listed as 78.0 g/L, the “average Lactic Acid” value is 3.3 g/L, the “% delta Ethanol” value is listed as 0.5% and the “% delta Lactic Acid” value is −1.3%. In data set [1] (AA13 dose 50 ug/g-DS), the “average Ethanol” value amounted to 78.1 g/L, the “average Lactic Acid” value is reported as 3.3 g/L, the “% delta Ethanol” value came out at 0.6% and the “% delta Lactic Acid” value is −1.8%.

Consider “Penicillium antarcticum: Penicillium antarcticum AA13 polypeptide of SEQ ID NO: 135”, for which, in data set [1] (AA13 dose 10 ug/g-DS), the “average Ethanol” value came to 76.4 g/L, the “average Lactic Acid” value came to 3.4 g/L, the “% delta Ethanol” value is recorded as −1.6% and the “% delta Lactic Acid” value was 2.2%. Besides, in data set [1] (AA13 dose 50 ug/g-DS), the “average Ethanol” value came to 76.2 g/L, the “average Lactic Acid” value was 3.4 g/L, the “% delta Ethanol” value is listed as −1.8% and the “% delta Lactic Acid” value amounted to 3.0%.

Regarding “Penicillium paxilli: Penicillium paxiffi AA13 polypeptide of SEQ ID NO: 138”, in data set [1] (AA13 dose 10 ug/g-DS), the “average Ethanol” value came out at 77.8 g/L, the “average Lactic Acid” value is recorded as 3.2 g/L, the “% delta Ethanol” value is 0.2% and the “% delta Lactic Acid” value was −4.9%. Also, in data set [1] (AA13 dose 50 ug/g-DS), the “average Ethanol” value was 78.1 g/L, the “average Lactic Acid” value is given as 3.1 g/L, the “% delta Ethanol” value is on record as 0.5% and the “% delta Lactic Acid” value is on record as −5.7%.

For “Aspergillus insuetus: Aspergillus insuetus AA13 polypeptide of SEQ ID NO: 130”, in data set [1] (AA13 dose 10 ug/g-DS), the “average Ethanol” value was found to be 76.7 g/L, the “average Lactic Acid” value was found to be 3.4 g/L, the “% delta Ethanol” value is −1.2% and the “% delta Lactic Acid” value came out at 1.7%. Besides, in data set [1] (AA13 dose 50 ug/g-DS), the “average Ethanol” value came out at 77.2 g/L, the “average Lactic Acid” value is 3.4 g/L, the “% delta Ethanol” value was −0.6% and the “% delta Lactic Acid” value is reported as 2.1%.

Consider “Penicillium steckii: Penicillium steckii AA13 polypeptide of SEQ ID NO: 145”, for which, in data set [1] (AA13 dose 10 ug/g-DS), the “average Ethanol” value was determined as 76.6 g/L, the “average Lactic Acid” value amounted to 3.5 g/L, the “% delta Ethanol” value is given as −1.4% and the “% delta Lactic Acid” value came out at 4.5%. In data set [1] (AA13 dose 50 ug/g-DS), the “average Ethanol” value worked out at 77.3 g/L, the “average Lactic Acid” value stood at 3.3 g/L, the “% delta Ethanol” value is −0.4% and the “% delta Lactic Acid” value is −1.0%.

Turning to “Penicillium samsonianum: Penicillium samsonianum AA13 polypeptide of SEQ ID NO: 140”, in data set [1] (AA13 dose 10 ug/g-DS), the “average Ethanol” value was 77.1 g/L, the “average Lactic Acid” value was 3.4 g/L, the “% delta Ethanol” value is reported as −0.6% and the “% delta Lactic Acid” value is 2.2%. Also, in data set [1] (AA13 dose 50 ug/g-DS), the “average Ethanol” value stood at 77.4 g/L, the “average Lactic Acid” value is on record as 3.4 g/L, the “% delta Ethanol” value is −0.4% and the “% delta Lactic Acid” value stood at 2.0%.

“Cladosporium gossypiicola: Cladosporium gossypiicola AA13 polypeptide of SEQ ID NO: 131”: in data set [1] (AA13 dose 10 ug/g-DS), the “average Ethanol” value stood at 77.5 g/L, the “average Lactic Acid” value turned out to be 3.3 g/L, the “% delta Ethanol” value is recorded as −0.2% and the “% delta Lactic Acid” value is listed as −1.8%. In addition, in data set [1] (AA13 dose 50 ug/g-DS), the “average Ethanol” value is 78.5 g/L, the “average Lactic Acid” value was found to be 3.2 g/L, the “% delta Ethanol” value was 1.1% and the “% delta Lactic Acid” value is given as −4.6%.

As to “Penicillium concentricum: Penicillium concentricum AA13 polypeptide of SEQ ID NO: 136”, in data set [1] (AA13 dose 10 ug/g-DS), the “average Ethanol” value is 78.1 g/L, the “average Lactic Acid” value came out at 3.3 g/L, the “% delta Ethanol” value came out at 0.6% and the “% delta Lactic Acid” value is −0.6%. Moreover, in data set [1] (AA13 dose 50 ug/g-DS), the “average Ethanol” value came out at 78.2 g/L, the “average Lactic Acid” value amounted to 3.2 g/L, the “% delta Ethanol” value was found to be 0.7% and the “% delta Lactic Acid” value is listed as −3.2%.

B1: Pfu S: commercial product Pyrococcus furiosus protease (Pfu S), SEQ ID NO: 111 (protein, listed as Pyrococcus furiosus)
chain: AELEGLDESAAQVMATYVWNLGYDGSGITIGIIDTGIDASHPDLQGKVIGWVDFVNGRSYPYDDHGHGTHVASIAAGTGAASNGKYKGMAPGAKLAGIKVLGADGSGSISTIIKGVEWAVDNKDKYGIKVINLSLGSSQSSDGTDALSQAVNAAWDAGLVVVVAAGNSGPNKYTIGSPAAASKVITVGAVDKYDVITSFSSRGPTADGRLKPEVVAPGNWIIAARASGTSMGQPINDYYTAAPGTSMATPHVAGIAALLLQAHPSWTPDKVKTALIETADIVKPDEIADIAYGAGRVNAYKAINYDNYAKLVFTGYVANKGSQTHQFVISGASFVTATLYWDNANSDLDLYLYDPNGNQVDYSYTAYYGFEKVGYYNPTDGTWTIKVVSYSGSANYQVDVVSDGSLSQPGSS
Consider B1, for which, in data set [2], the “thermostability (Relative Activity 80° C./70° C.)” value is given as 110% and the “thermostability (Relative Activity 90° C./70° C.)” value is given as 103%.

The values are drawn from US11795481B2, “Processes for producing a fermentation product” (Novozymes A/S, priority 2017, dated 2023).
